Data reported in patent US20230382858A1 (Beckley Psytech Limited, priority 2020, published 2023).

Columns and labels:
male Sprague-Dawley rats = test: Functional Observational Battery (FOB), effects on CNS function (ITR study 15951); format: in vivo; conditions: rat
Protocol: The test and control/vehicle items were administered by single dose intranasal administration to both nostrils, as shown in Table 1.
Parameters monitored included mortality and clinical signs. General behavioral changes were assessed using FOB at 6 timepoints: before dosing, and at 15 minutes, 1, 2, 4, and 24 hours postdosing. On each occasion, the FOB was performed at 4 stages: when the animals were in their home cage, while handling the animals, when the animals were freely moving in an open-field, and when they received diverse stimuli for reactivity evaluation. The body temperature and neuromuscular strength were also measured on each of the occasions detailed above.

dogs = test: Maximum tolerated dose followed by 7-day repeat-dose toxicology in dogs (Study 62958); format: in vivo; conditions: dog
Protocol: In support of these objectives, the study consisted of 2 individual phases.
The test item was administered once by intranasal instillation to one male and female dog for up to 5 dose levels until the highest tolerable dose (MTD) was determined as described in Table 5.
During Phase 2, assessments of mortality, clinical signs, body weights and food consumption were performed. […] Following the last dosing, all animals were euthanized and subjected to a necropsy examination on Day 8. The necropsy consisted of an external examination; including reference to all clinically-recorded lesions, as well as a detailed internal examination. Study plan specific tissues/organs were collected and preserved following necropsy but were not further examined microscopically.

[1] = Toxicokinetics in Study 62958 (plasma 5MeODMT, LC/MS/MS); format: in vivo; conditions: dog, daily intranasal instillation, 7-day treatment period
Sprague Dawley rats = test: 14-day repeat-dose intranasal toxicity study with 14-day recovery in rats (Study 700041); format: in vivo, rat; conditions: for clinical signs: male and female; for microscopic changes in nasal cavities: male and/or female
Protocol: (§1) The animals were monitored for mortality, clinical signs, respiratory measurements, body weights, food consumption, and body temperature. Ophthalmoscopic examinations and respiratory function tests were performed on all animals at scheduled timepoints. Clinical pathology assessments (hematology, coagulation, clinical chemistry, and urinalysis) were evaluated at termination. […] Following dosing, the Main animals were euthanized and subjected to a complete necropsy examination on Day 15. […] TK animals were euthanized after the last blood collection and discarded without further examination. At terminal euthanasia, selected tissues/organs were weighed, and microscopic evaluations of a standard set of tissues including the nasal turbinates (4 sections) and brain (7 sections) were performed for all Main and Recovery study animals.
(§2) Following dosing, animals in the Main group were euthanized and subjected to a necropsy examination on Day 15.
Toxicity was based on the following parameters monitored: mortality/morbidity, clinical observations, body weights/gains, food consumption, ophthalmoscopy, clinical pathology (hematology, coagulation, chemistry, and urinalysis), necropsy observations, selected organ weights, and microscopic examination of a complete set of standard tissues including 4 cross levels of the nasal cavity and 7 sections of the brain.

[2] = Toxicokinetics in Study 700041; format: in vivo; conditions: rat, intranasal 20 mg/kg/day, Day 14, Male
Protocol: as §1, §2

Beagle dogs = test: 14-day repeat-dose intranasal toxicity study with 14-day recovery in dogs (Study 62959); format: in vivo; conditions: dog; for animals with increased triglyceride level: vs control
Protocol: (§3) Assessments of mortality, clinical signs, olfactory reflex, body weights, food consumption, ophthalmology, and electrocardiograms were performed. In addition, clinical pathology assessments (hematology, coagulation, clinical chemistry and urinalysis) were evaluated once pretreatment and at termination. Blood samples were collected from the jugular vein of all animals on Days 1 and 14, at up to 8 time points relative to treatment, for analysis of test item concentration in plasma and the subsequent calculation of toxicokinetic parameters. Following dosing, the Main animals were euthanized and subjected to a complete necropsy examination on Day 15. […] All Main and Recovery study animals underwent complete necropsy examinations, selected tissues/organs were retained, and microscopic evaluations of a standard set of tissues were performed.

[3] = Toxicokinetics in Study 62959; format: in vivo; conditions: dog
Protocol: as §3
For toxicokinetics, a series of 8 blood samples were collected from the jugular vein from all treated animals on each of Days 1 and 14 of the treatment period at 2, 5, 10, 15, 30, and 60 minutes as well as 3 and 8 hours after treatment.

Dog = test: Summary of clinical observations in applicant-sponsored dog toxicity studies; format: in vivo; conditions: Dog 1.0 mg/kg (33 mg HED), preliminary data, ongoing study
Excerpt: Based on preliminary data from another ongoing study in dogs, it has been observed that the site of blood sampling in dogs may impact the measured plasma exposure. Samples from the jugular vein may result in higher apparent exposure levels than samples from the cephalic vein, which might be due to the local transmucosal route of administration (also reported in the scientific literature (Illum, 2003; Sohlberg, 2013)). Therefore, dose escalation criteria for the Phase 1 Single Ascending Dose study are based on assessment of clinical criteria, safety factors and exposure. A maximum dose of 14 mg has been designated.

[4] = single intranasal 1, 5, and 10 mg/kg, all dose levels
[5] = dose escalation phase, single intranasal 2-5 mg/kg
[6] = phase 2, MTD once daily 5 days then twice daily Days 6 and 7
[7] = rat, dose levels ≤75 mg/kg/day for 14 days
[8] = intranasal 0.8 mg/kg/day, Day 1, Female
[9] = intranasal 0.8 mg/kg/day, Day 1, Male
[10] = intranasal 0.8 mg/kg/day, Day 14, Female

COc1ccc2[nH]cc(CCN(C)C)c2c1 [BPL-5MEO, 5-methoxy-N,N-dimethyltryptamine]
clinical sign in one animal (male Sprague-Dawley rats; single intranasal 10 mg/kg): twitching
FOB autonomic domain (male Sprague-Dawley rats; [4]): salivation, piloerection, increased respiration, dilated pupils and changes in body temperature
FOB neurological (sensorimotor)/neuromuscular domain (male Sprague-Dawley rats; [4]): transient changes in gait (difficulty in movement)
FOB behavioral domain (male Sprague-Dawley rats; single intranasal 1.5, 3, 10 mg/kg, 15 minutes postdose): transient decreased activity, lying on the cage floor, and decreased rearing
clinical signs in some animals (male Sprague-Dawley rats; single intranasal 3 and 10 mg/kg): Tremors, salivation, and gasping
clinical signs immediately following dosing (male Sprague-Dawley rats; single intranasal, all dose groups): decreased activity, lying on the cage floor, shallow/increased respiration and dilated pupils
food intake (dogs; dose escalation phase, after Dose 1 and Dose 2): Slight decreases in food intake
clinical signs (dogs; [5]): gnawing cage wire, dilated pupils, changes in respiration, incoordination, decreased activity, vocalization, salivation, erect penis (for males) and shaking
mortality and bodyweights (dogs; [5]): no BPL-5MEO-related effects on mortality or bodyweights
duration of convulsion shortly after dosing (dogs; male animal, last escalating dose 3.5 mg/kg/day): 8 min
clinical signs (dogs; [6]): muscle stiffness, gnawing cage wire, dilated pupils, changes in respiration, decreased activity, incoordination, vocalization, salivation, erect penis (for the male) and shaking
mortality and bodyweights (dogs; [6]): no test item-related effects on mortality or bodyweights
accumulation [1]: did not accumulate
adverse effect on reproductive tissues (Sprague Dawley rats; 14-day pivotal GLP intranasal toxicity studies in rats and dogs): no evidence of an adverse effect on reproductive tissues
Thymus Mean Absolute Weight (Sprague Dawley rats; male rats, Group 2 (5 mg/kg/day), compared to the control value): −4 percentage
respiratory rate (Sprague Dawley rats; rat, 20 minutes postdose, vs pretreatment or control): decreases in respiratory rates
body temperature (Sprague Dawley rats; rat, Day 14, 15 and 30 minutes postdose, all treated male animals): slight body temperature increases
clinical signs (Sprague Dawley rats; rat, Group 2 (Low Dose) 5 mg/kg/day): incoordination, shaking, salivation, decreased activity, lying on cage floor and sensitive to touch
clinical signs (Sprague Dawley rats; rat, Group 3 (Mid Dose) 20 mg/kg/day): incoordination, shaking (or tremor), increased or shallow respiration, mydriasis, salivation, decreased activity, partially closed eyes, lying on cage floor and sensitive to touch
clinical signs (Sprague Dawley rats; rat, Group 4 (High Dose) 75 mg/kg/day): incoordination, shaking (or tremor), increased or shallow respiration, mydriasis, salivation, decreased activity, partially closed eyes, lying on cage floor and sensitive to touch
macroscopic findings (Sprague Dawley rats; rat, Main and Recovery groups): no macroscopic findings
microscopic findings in respiratory, transitional and/or olfactory epithelium of nasal cavities 1-4 (Sprague Dawley rats; rat, Main group): minimal to mild changes
microscopic changes in nasal cavities (Sprague Dawley rats; rat, Main group, 20 mg/kg/day (Group 3)): Minimal degeneration of the respiratory epithelium of the nasal cavities 1 and 2
microscopic changes in nasal cavities (Sprague Dawley rats; rat, Main group, 5 and/or 20 mg/kg/day (Group 2 and 3)): Minimal degeneration of the olfactory epithelium of the nasal cavities 2 and 3
reversibility of nasal microscopic changes (Sprague Dawley rats; rat, Recovery group, 14-day recovery period): incomplete but progressive ongoing reversal of epithelial degeneration
body weight gain (Sprague Dawley rats; rat, both sexes, Days 1 to 14): Slight, generally dose-dependent body weight gain suppression
activated partial thromboplastin times (APTT) (Sprague Dawley rats; rat, both sexes, mid (20 mg/kg/day) and high (75 mg/kg/day) dose groups, vs control): increased
clinical chemistry and urinalysis (Sprague Dawley rats; [7]): no changes in clinical chemistry and urinalysis parameters
food consumption (Sprague Dawley rats; [7]): no changes in food consumption
ocular effect (Sprague Dawley rats; [7]): no adverse ocular effect
mortality (Sprague Dawley rats; rat, intranasal 5, 20, 75 mg/kg/day, 14 days): No mortality
tolerability (Sprague Dawley rats; rat, intranasal, dose levels ≤75 mg/kg/day for 14 consecutive days): tolerated
platelet, neutrophil, monocyte and basophil counts (Sprague Dawley rats; rat, mid and high dose groups, both sexes, vs control): slightly increased
t1/2 [2]: 8.58 min
body temperature (Beagle dogs; Day 14, high dose group, both sexes, 15 and 30 minutes postdose): Transient body temperature increases
Triglyceride, Mean ± SD Day 14 (Beagle dogs; Group 2, 0.4 mg/kg/day, Females): 0.46 ± 0.61 mmol/L
Triglyceride, Mean ± SD Day 14 (Beagle dogs; Group 2, 0.4 mg/kg/day, Males): 0.40 ± 0.11 mmol/L
Triglyceride, Mean ± SD Day 14 (Beagle dogs; Group 3, 0.8 mg/kg/day, Females): 0.47 ± 0.22 mmol/L
Triglyceride, Mean ± SD Day 14 (Beagle dogs; Group 3, 0.8 mg/kg/day, Males): 0.44 ± 0.07 mmol/L
animals with increased triglyceride level (Beagle dogs; Group 3 female): 1/3
animals with increased triglyceride level (Beagle dogs; Group 4 females): 4/5
animals with increased triglyceride level (Beagle dogs; Group 4 male): 1/5
additional clinical observations (Beagle dogs; Mid and High dose groups): eye discharge and shaking
time to resolution of clinical signs (Beagle dogs; all treated groups): ≤ 90 min
transient clinical observation (Beagle dogs; all treated groups): incoordination, vocalization, mydriasis, decreased or increased activity, increased respiration, gnawing cage wire, excessive licking of nose or lips and circling
additional clinical observation (Beagle dogs; high dose male animals): Erect penis
AUC(0-inf) ([3]; Beagle, plasma, inhaled or intranasal, 1.5 mg/kg/day, combined for both sexes, read-out: AUCINF_obs corresponding to NOAEL): 220 ng·h/mL
Cmax ([3]; intranasal 0.4 mg/kg/day, Day 1, Male): 343 ng/mL
t1/2 ([3]; intranasal 0.4 mg/kg/day, Day 14, Female): 42.4 min
Tmax ([3]; intranasal 0.4 mg/kg/day, Day 14, Male): 6.66 min
AUCINF—obs [3, 8]: 265 ng·h/mL
t1/2 [3, 8]: 43.8 min
AUCINF—obs [3, 9]: 160 ng·h/mL
Tmax [3, 9]: 6.66 min
AUC0-Tlast [3, 10]: 248 ng·h/mL
Cmax [3, 10]: 244 ng/mL
Tmax ([3]; intranasal 0.8 mg/kg/day, Day 14, Male): 6.66 min
Tmax ([3]; intranasal 2.5 & […], Day 1, Female): 6.66 min
t1/2 ([3]; intranasal 2.5 & […], Day 14, Male): 49 min
Clinical observation (Dog): Slight tremor
